Data published in ChEMBL document CHEMBL5727145, “Aminoindane-, aminotetrahydronaphthalene- and aminobenzocyclobutane-derived PRMT5-inhibitors” (2018).

Molecular target: Protein arginine N-methyltransferase 5 (Homo sapiens, UniProt O14744)
Experiment: iochemical Assay: Compounds of the invention may be tested for in vitro activity in the following assay: A histone H4 derived peptide is used as substrate (amino acid sequence: […]NH2). Full-length PRMT5 enzyme (NCBI Reference sequence NP-006100.2) was co-expressed with Hiss-MEP50 in insect cells and purified via Nickel immobilized metal affinity and gel filtration chromatograph.The 6 μL assay reactions are run in Greiner brand black 384-well low volume plates. All reactions contained assay buffer (phosphate buffered saline, 0.01% (v/v) Tween-20, 0.01% (w/v) albumin from chicken egg white, 1 mM dithiothreitol, 200 nM peptide substrate, 1 μM S-Adenosyl methionine, and 15 ng/reaction enzyme, with the enzyme being omitted from negative control reactions. Compounds were added in a volume of 100 nL from dilution series prepared in DMSO, positive and negative control reactions receiving the same volume DMSO without compound. The plates were sealed with adhesive seals and incubated for 4 hours at 37° C. Reaction progress was measured using the Transcreener™ EPIGEN methyltransferase assay (BellBrook Labs, Madison, Wis.) as recommended by the manufacturer. To each reaction 2 μL detection mix were added, containing coupling enzymes, fluorescence polarisation tracer, and AMP antibody. […]

Protein arginine N-methyltransferase 5, sequence (O14744 whole entry): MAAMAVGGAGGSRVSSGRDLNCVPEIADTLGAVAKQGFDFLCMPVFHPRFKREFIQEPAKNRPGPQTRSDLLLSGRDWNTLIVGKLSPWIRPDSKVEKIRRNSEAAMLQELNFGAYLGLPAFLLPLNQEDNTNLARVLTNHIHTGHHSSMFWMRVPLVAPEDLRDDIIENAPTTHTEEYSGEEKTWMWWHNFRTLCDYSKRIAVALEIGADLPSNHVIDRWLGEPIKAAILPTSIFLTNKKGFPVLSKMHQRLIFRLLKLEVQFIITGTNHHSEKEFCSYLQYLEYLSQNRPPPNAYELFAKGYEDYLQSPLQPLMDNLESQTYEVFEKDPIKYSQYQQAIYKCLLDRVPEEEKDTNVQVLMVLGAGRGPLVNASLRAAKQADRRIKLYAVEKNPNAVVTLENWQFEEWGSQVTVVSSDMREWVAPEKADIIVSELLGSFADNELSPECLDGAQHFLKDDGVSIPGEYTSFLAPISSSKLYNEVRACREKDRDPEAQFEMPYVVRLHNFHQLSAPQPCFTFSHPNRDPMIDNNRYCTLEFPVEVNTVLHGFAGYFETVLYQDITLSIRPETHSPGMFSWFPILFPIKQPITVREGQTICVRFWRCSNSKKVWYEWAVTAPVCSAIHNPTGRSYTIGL

Row | IC50 | SMILES
1 | 31.4 µM | CNC(=O)c1cccc(C(=O)NC[C@@H](O)CNC2Cc3ccccc3C2)c1
2 | 2.45 µM | COc1ccc(-c2cc(C(=O)NC[C@H](O)CNC3Cc4ccccc4C3)on2)cc1
